In US5093325A, “Combination preparation having antithrombotic action” (priority 1989, dated 1992):

How the values were obtained:
[1] = test system: human platelets; assay: Inhibition of collagen-stimulated aggregation of human platelets in platelet-rich plasma (aggregometer); type: cell-based
Description: (§1) Human platelet-rich plasma (PRP) is incubated in an aggregometer at 37° C. and mixed with […] of collagen to cause aggregation. […] The course of the aggregation is recorded in the aggregometer. 10 minutes after collagen addition, the samples are centrifuged at 3000 rpm and the supernatant is tested with an enzyme linked immunosorbent assay (ELISA) for its content of plasminogen activator inhibitor-1 (PAI-1) and with a radioimmunoassay (RIA) for the content of platelet-derived growth factor (PDGF).

[2] = test system: PAI-1 release of human platelets; assay: Inhibition of PAI-1 release from collagen-stimulated human platelets (ELISA); type: cell-based; conditions: Platelet, N = 6, % of control
Description: as §1

[3] = test system: PDGF release of human platelets; assay: Inhibition of PDGF release from collagen-stimulated human platelets (RIA); type: cell-based; conditions: Platelet, N = 6, % of control
Description: as §1

[4] = test system: collagen-stimulated blood platelets; assay: Inhibition of collagen-induced thrombocytopenia in anesthetized guinea pigs; type: in vivo, guinea pig; conditions: for % Thrombocytopenia Inhibition: average ± SEM
Source text: Reversible thrombocytopenias are produced on anesthetized guinea pigs by injection of collagen ([…] i.v.). The cause of these thrombocytopenias is an aggregate formation of the collagen-stimulated blood platelets and the embolization of these platelet aggregates in the lungs, where they then lodge and thus cause the observed drops of the platelet count in the blood (thrombocytopenias).

[5] = test system: occluding platelet thrombi on mesenteric arterioles; assay: Thrombogenic ADP concentration for occluding platelet thrombi on previously traumatized mesenteric arterioles; type: in vivo, guinea pig; conditions: for Thrombogenic ADP Concentration, Increase: N 5, average
Description: A mesenteric loop is placed on an anesthetized guinea pig and is superfused with a moderately heated solution of common salt. Under intravital microscopic control the vascular wall of a mesenteric arteriole (020-50 m) is traumatized by a series of electric pulses. By subsequent local application of increasing concentrations of ADP (adenosine diphosphate) solution a thrombogenic ADP concentration is determined, at which an occluding platelet thrombus forms on the pretraumatized site of the arteriole. This thrombogenic ADP concentration produces vascular-specific and reproducible thrombi in the respective arteriole.

[6] = test system: thrombus formation in carotid arteries; assay: Thrombus formation in carotid arteries previously traumatized by pressure + cold (thrombus hemoglobin content); type: in vivo, guinea pig
Description: A 2-cm-long piece of the external left carotid artery on an anesthetized guinea pig is carefully exposed and drawn over a small metal plate. Then the vascular wall is weighted down over a length of 1 cm for 3 minutes with a steel stamp weighing 200 g, cooled to -15° C. In this way, a massive local vascular trauma is caused on a large artery and a red thrombus develops on the traumatized site. Three hours after the trauma the traumatized segment and an equally long piece of the contralateral artery are removed, asked and put in hemoglobin test reagent. The hemoglobin contents of the two segments are determined 24 hours later. The net hemoglobin content of the red thrombus as the measurement of the thrombus size is calculated from the difference of these hemoglobin contents.

CCC#CC[C@H](C)[C@H](O)C#C[C@@H]1[C@H]2C/C(=C/COCC(=O)O)C[C@H]2C[C@H]1O [Cicaprost]
platelet aggregation inhibition, in words ([1]; Cicaprost 10^-10 or 10^-9 M, separately): ineffective
inhibition at 0.1 µM ([1]; Homo sapiens, Platelet, Cicaprost 10^-7 M, N = 6, % of control): 95 ± 3%
inhibition at 0.01 µM ([1]; Homo sapiens, Platelet, Cicaprost 10^-8 M, N = 6, % of control): 95 ± 4%
inhibition at 0.001 µM ([1]; Homo sapiens, Platelet, Cicaprost 10^-9 M, N = 6, % of control): 0%
inhibition at 0.0001 µM ([1]; Homo sapiens, Platelet, Cicaprost 10^-10 M, N = 6, % of control): 4 ± 3%
inhibition at 0.1 µM ([2]; Cicaprost 10^-7 M): 80 ± 5%
inhibition at 0.01 µM ([2]; Cicaprost 10^-8 M): 72 ± 3%
inhibition at 0.001 µM ([2]; Cicaprost 10^-9 M): 0%
inhibition at 0.0001 µM ([2]; Cicaprost 10^-10 M): 0%
inhibition at 0.1 µM ([3]; Cicaprost 10^-7 M): 81 ± 1%
inhibition at 0.01 µM ([3]; Cicaprost 10^-8 M): 81 ± 3%
inhibition at 0.001 µM ([3]; Cicaprost 10^-9 M): 3 ± 3%
inhibition at 0.0001 µM ([3]; Cicaprost 10^-10 M): 1 ± 2%
thrombocytopenia inhibition, in words ([4]; Cicaprost 1 ng/kg/min i.v., separately): ineffective
% Thrombocytopenia Inhibition ([4]; Cicaprost 1 ng/kg/min i.v., N 6, n.s.): 8 ± 5%
% Thrombocytopenia Inhibition ([4]; Cicaprost 3 ng/kg/min, N 6, p less than 0.05 vs control): 36 ± 4%
higher dose of Cicaprost alone needed for the effect of the combination ([4]; vs 1 ng/kg/min i.v. in combination with ASA 0.5 mg/kg): three-fold higher dose
higher dosage of Cicaprost alone needed for the antithrombotic action of the combination ([5]; 100 ng/kg/min i.v. alone vs 10 ng/kg/min in combination): 10 fold
change of thrombogenic ADP concentration, in words ([5]; Cicaprost 10 ng/kg/min i.v.): not significantly effective
Thrombogenic ADP Concentration, Increase ([5]; Cicaprost 10 ng/kg/min, SEM ±0.39, n.s.): 0.36
Thrombogenic ADP Concentration, Increase ([5]; Cicaprost 30 ng/kg/min, SEM ±0.20, p less than 0.05 vs control): 1.02
increase of the thrombogenic ADP concentration ([5]; Cicaprost 100 ng/kg/min i.v., N=5): 1.32±0.2 log M
Thrombogenic ADP Concentration, Increase ([5]; Cicaprost 100 ng/kg/min, SEM ±0.20, p less than 0.05 vs control): 1.32
Thrombus Hb content, Median ([6]; Cicaprost 0.3 ng/kg/min, N 10, Q 25/Q 75 8.0/25.0, n.s., control 8.6): 12.4 µmol
Thrombus Hb content, Median ([6]; Cicaprost 1.0 ng/kg/min, N 10, Q 25/Q 75 0.2/5.8, significant vs control 8.6): 1.9 µmol
Thrombus Hb content, Median ([6]; Cicaprost 3.0 ng/kg/min, N 11, Q 25/Q 75 -0.4/0.7, significant vs control 8.6): 0 µmol
effect on thrombus formation in the carotid artery, in words ([6]; dosage printed C.3 ng/kg/min i.v.): significantly effective

CC(=O)Oc1ccccc1C(=O)O [ASA, acetylsalicylic acid]
thrombocytopenia inhibition, in words ([4]; ASA 0.5 mg/kg i.v.): weakly inhibiting
% Thrombocytopenia Inhibition ([4]; ASA 0.5 mg/kg i.v., N 8, p less than 0.05 vs control): 17 ± 3%
change of thrombogenic ADP concentration, in words ([5]; ASA 10 mg/kg i.v.): does not change the thrombogenic ADP concentration
Thrombogenic ADP Concentration, Increase ([5]; ASA 10 mg/kg, SEM ±0.13, n.s.): 0.06
effect on thrombus formation in the carotid artery, in words ([6]; ASA 5 mg/kg i.v.): no significant effect
Thrombus Hb content, Median ([6]; ASA 5 mg/kg, N 10, Q 25/Q 75 -0.1/13.8, n.s., control 8.6): 3.4 µmol
